Experimental data from patent publication US8623862B2, “Derivatives of N-[(1H-pyrazol-1-yl)aryl]-1H-indole or 1H-indazole-3-carboxamide, preparation thereof and applications thereof in therapeutics” (Sanofi, priority 2011, dated 2014).
Where two headings read alike, the source gives them in different places.

Test system: platelet aggregation
Assay: Inhibition of platelet aggregation in vitro (rat blood);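 further: aggregation induced by ADP added as 4 µL of a 250 µM solution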
Assay type: cell-based
Details: read-out: Inhibition of platelet aggregation in vitro (rat blood);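 further: aggregation induced by ADP added as 4 µL of a 250 µM solution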
Procedure: The measurements of platelet aggregation are performed at 37° C. in glass tubes (Chrono-Log—Kordia aggregometer).
Inhibition of Platelet Aggregation In Vitro (Rat Blood)
The blood is taken from male rats of the Sprague-Dawley strain, weighing 250-300 g.
The platelet-rich plasma (PRP) is obtained by centrifugation of the blood at 300 g for 5 minutes, and the measurements of platelet aggregation are performed as described above.
The results are calculated using the area under the curve of absorbance measured for 6 minutes, and expressed as percentage inhibition.

[1] = rat platelet-rich plasma, ADP-induced aggregation, area under the curve of absorbance for 6 minutes

**Q.** `CCCC(=O)c1cnn(-c2ccc(NC(=O)c3cn(CC(=O)N4CC(N5CCOCC5)C4)c4ccc(Cl)cc34)nn2)c1C` [Compound 104] was tested. Which IC50 [1] did it give?
**A.** Its IC50 is 100 nM.

**Q.** Which IC50 [1] does the source give for `CCCC(=O)c1cnn(-c2ccc(NC(=O)c3cn(CC(=O)N4CCN(CC(=O)N5CCCC5)CC4)c4ccc(Cl)cc34)nn2)c1C` [Compound 46] here?
**A.** The IC50 was 40 nM.

**Q.** Which IC50 (rat blood, in vitro) does the source give for `CCCC(=O)c1cnn(-c2ccc(NC(=O)c3cn(CC(=O)N4CCN(CC(N)=O)CC4)c4ccc(Cl)cc34)cc2)c1C` [Compound 199] here?
**A.** The IC50 was 270 nM.

**Q.** `CCCC(=O)c1cnn(-c2ccc(NC(=O)c3cn(CC(=O)N4CC(C)N(C)C(C)C4)c4ccc(C)cc34)cc2)c1C` (centres unmarked) [Compound 263] was tested. Which IC50 [1] did it give?
**A.** The IC50 was 420 nM.

**Q.** `CCCC(=O)c1cnn(-c2ccc(NC(=O)c3cn(CC(=O)N4CCC(CO)CC4)c4ccc(Cl)cc34)nn2)c1C` [Compound 56] was tested. Which IC50 [1] did it give?
**A.** The IC50 was 300 nM.

**Q.** With `CCCC(=O)c1cnn(-c2ccc(NC(=O)c3cn(CC(=O)N4CCN(CC(=O)OCC)CC4)c4ccc(Cl)cc34)nn2)c1C` [Compound 34] as the compound, how does the IC50 [1] read?
**A.** Its IC50 is 90 nM.

**Q.** Which IC50 [1] does the source give for `CCCC(=O)c1cnn(-c2ccc(NC(=O)c3cn(CC(=O)N4CCN(CC(=O)NC5CC5)CC4)c4ccc(Cl)cc34)nn2)c1C` [Compound 81] here?
**A.** Its IC50 is 40 nM.

**Q.** Which IC50 (rat blood, in vitro) does the source give for `CCCC(=O)c1cnn(-c2ccc(NC(=O)c3cn(CC(=O)N4CCN(C)C(CCOC)C4)c4ccc(Cl)cc34)cc2)c1C` (centres unmarked) [Compound 196] here?
**A.** The IC50 was 230 nM.

**Q.** How did the IC50 (rat blood, in vitro) turn out when `CCCC(=O)c1cnn(-c2ccc(NC(=O)c3cn(CC(=O)N4CCc5[nH]ncc5C4)c4ccc(Cl)cc34)cc2)c1C` [Compound 173] was run?
**A.** The IC50 was 170 nM.

**Q.** Which IC50 [1] does the source give for `CCCC(=O)c1cnn(-c2ccc(NC(=O)c3nn(CC(=O)O)c4ccc(C)cc34)cc2)c1C` [Compound 24] here?
**A.** The IC50 was 37000 nM.

**Q.** `CCCC(=O)c1cnn(-c2ccc(NC(=O)c3cn(CC(=O)N4CCNC(C)C4)c4ccc(Cl)cc34)cc2)c1C` (centres unmarked) [Compound 257] was tested. Which IC50 [1] did it give?
**A.** The IC50 was 460 nM.

**Q.** Which IC50 [1] does the source give for `CCCC(=O)c1cnn(-c2ccc(NC(=O)c3cn(CC(=O)N4CC5CC4CN5C)c4ccc(C)cc34)cc2)c1C` (centres unmarked) [Compound 264] here?
**A.** The IC50 was 560 nM.

**Q.** Which IC50 [1] does the source give for `CCCC(=O)c1cnn(-c2ccc(NC(=O)c3cn(CC(=O)NC)c4ccc(Cl)cc34)nn2)c1C` [Compound 32] here?
**A.** Its IC50 is 190 nM.

**Q.** How did the IC50 [1] turn out when `CCCC(=O)c1cnn(-c2ccc(NC(=O)c3cn(CC(=O)N4CCCC(NC)C4)c4ccc(C)cc34)cc2)c1C` (centres unmarked) [Compound 251] was run?
**A.** The IC50 was 540 nM.

**Q.** For `CCCC(=O)c1cnn(-c2ccc(NC(=O)c3cn(CC(=O)N4CCN(C5CCS(=O)(=O)C5)CC4)c4ccc(Cl)cc34)nn2)c1C` (centres unmarked) [Compound 73], which IC50 [1] is on record?
**A.** Its IC50 is 50 nM.

**Q.** Which IC50 [1] does the source give for `CCCC(=O)c1cnn(-c2ccc(NC(=O)c3cn(CC(=O)N4CC5CCCN5CC4C)c4ccc(Cl)cc34)nn2)c1C` (centres unmarked) [Compound 88] here?
**A.** The IC50 was 90 nM.

**Q.** How did the IC50 (rat blood, in vitro) turn out when `CCCC(=O)c1cnn(-c2ccc(NC(=O)c3cn(CC(=O)N4CCN(CC(=O)N(C)C)CC4)c4ccc(Cl)cc34)cc2)c1C` [Compound 154] was run?
**A.** Its IC50 is 150 nM.

**Q.** How did the IC50 (rat blood, in vitro) turn out when `CCCC(=O)c1cnn(-c2ccc(NC(=O)c3cn(CC(=O)N4CCN(C(C)C)CC4)c4ccc(C)cc34)cc2)c1C` [Compound 124] was run?
**A.** Its IC50 is 210 nM.

**Q.** With `CCCC(=O)c1cnn(-c2ccc(NC(=O)c3cn(CC(=O)N4CCN(C)CC4)c4ccc(C(F)(F)F)cc34)cc2)c1C` [Compound 203] as the compound, how does the IC50 (rat blood, in vitro) read?
**A.** The IC50 was 360 nM.

**Q.** With `CCCC(=O)c1cnn(-c2ccc(NC(=O)c3cn(CC(=O)N(C)CCO)c4cc(C)c(C)cc34)cc2)c1C` [Compound 108] as the compound, how does the IC50 (rat blood, in vitro) read?
**A.** The IC50 was 980 nM.

**Q.** With `CCCC(=O)c1cnn(-c2ccc(NC(=O)c3cn(CC(=O)N4CCN(C)CC4)c4cc(C)c(Cl)cc34)cc2)c1C` [Compound 113] as the compound, how does the IC50 (rat blood, in vitro) read?
**A.** The IC50 was 620 nM.

**Q.** For `CCCC(=O)c1cnn(-c2ccc(NC(=O)c3cn(CC(=O)N(C)CCN(C)C)c4ccc(Cl)cc34)nn2)c1C` [Compound 97], which IC50 [1] is on record?
**A.** Its IC50 is 90 nM.

**Q.** Which IC50 [1] does the source give for `CCCC(=O)c1cnn(-c2ccc(NC(=O)c3cn(CC(=O)N4CCN(Cc5ccc(F)cc5)CC4)c4ccc(Cl)cc34)nn2)c1C` [Compound 92] here?
**A.** The IC50 was 200 nM.

**Q.** How did the IC50 [1] turn out when `CCCC(=O)c1cnn(-c2ccc(NC(=O)c3cn(CC(=O)N4CC5CCNC5C4)c4ccc(C)cc34)cc2)c1C` (centres unmarked) [Compound 246] was run?
**A.** Its IC50 is 850 nM.

**Q.** For `CCCC(=O)c1cnn(-c2ccc(NC(=O)c3cn(CC(=O)N4CCC(N5CCOCC5)CC4)c4ccc(Cl)cc34)nn2)c1C` [Compound 65], which IC50 [1] is on record?
**A.** Its IC50 is 120 nM.

**Q.** For `CCCC(=O)c1cnn(-c2ccc(NC(=O)c3cn(CC(=O)NCCn4ccnc4)c4ccc(C)cc34)cc2)c1C` [Compound 134], which IC50 (rat blood, in vitro) is on record?
**A.** The IC50 was 950 nM.
